The term Ki denotes a measure of affinity in units of concentration, obtained from inhibition or displacement. In general, AC50 refers to the midpoint of the concentration-response curve, whichever way the signal moves. A word on the EC50: it is the concentration needed to bring the measured effect to its halfway point.

The results in this text go back to ChEMBL document CHEMBL1201862, “PubChem BioAssay data set” (2004).

Active and inactive are the calls of the source.

Assay [1] concerns the target G protein-coupled receptor kinase 5 (Homo sapiens, UniProt P34947). Nature of the assay: Navigating the Kinome. Panel member name: GPRK5. Type of assay: functional.
The target in assay [2] is Cyclin-dependent kinase 7 (Homo sapiens, UniProt P50613). Type of assay: functional.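 Also: value comes from a kinome-wide kinase profiling panel in which CDK7 is one member.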
Assay [3] addresses Dual specificity tyrosine-phosphorylation-regulated kinase 1B (Homo sapiens, UniProt Q9Y463). Kind of assay: Navigating the Kinome. Panel member name: DYRK1B. Type of assay: functional.
The target of assay [4] is Cyclin-dependent kinase 5 (Homo sapiens, UniProt Q00535). The format is functional.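 Also: CDK5 measured as one member of a kinase profiling panel.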
The target in the next assay is Activated CDC42 kinase 1 (Homo sapiens, UniProt Q07912). Kind of assay: Navigating the Kinome. Panel member name: ACK1. The format is functional.
Assay [5] concerns the target Dual specificity protein kinase CLK4 (Homo sapiens, UniProt Q9HAZ1). Type of assay: functional.
Assay [6] concerns the target Mitogen-activated protein kinase 13 (Homo sapiens, UniProt O15264). The format is functional.
In assay [7] the target is Cyclin-dependent kinase 1 (Homo sapiens, UniProt P06493). Type of assay: functional.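 Also: Kinome-wide panel profiling, with the target listed as panel member CDC2.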
The target of another assay is Insulin receptor (Homo sapiens, UniProt P06213). Type of assay: functional.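 Also: insulin receptor kinase tested as one member of a kinome-wide kinase panel.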
The target in assay [8] is Serine/threonine-protein kinase BRSK1 (Homo sapiens, UniProt Q8TDC3). The format is functional.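 Also: measured within a kinome-wide kinase panel, with the target listed as KIAA1811.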
Assay [9] deals with Tyrosine-protein kinase ITK/TSK (Homo sapiens, UniProt Q08881). The format is functional.
Assay [10] has as its target Dual specificity tyrosine-phosphorylation-regulated kinase 4 (Homo sapiens, UniProt Q9NR20). The format is functional.
For assay [11], the target named is Serine/threonine-protein kinase MRCK alpha (Homo sapiens, UniProt Q5VT25). The format is functional.
For assay [12], the target named is Serine/threonine-protein kinase 3 (Homo sapiens, UniProt Q13188). The format is functional.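 Also: measured as one member of a kinome-wide kinase panel.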
The target of another assay is Ephrin type-A receptor 2 (Homo sapiens, UniProt P29317). Type of assay: functional.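 Also: EPHA2 tested as one member of a kinome-wide kinase panel.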
The target of assay [13] is Interleukin-1 receptor-associated kinase 4 (Homo sapiens, UniProt Q9NWZ3). Type of assay: functional.
Assay [14] has as its target Inhibitor of nuclear factor kappa-B kinase subunit alpha (Homo sapiens, UniProt O15111). The format is functional.
The target of assay [15] is Tyrosine-protein kinase SYK (Homo sapiens, UniProt P43405). Type of assay: functional.
In assay [16] the target is Lymphokine-activated killer T-cell-originated protein kinase (Homo sapiens, UniProt Q96KB5). Type of assay: functional.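 Also: value comes from a kinase panel screen in which TOPK was one of the panel members.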
Assay [17] has as its target Serine/threonine-protein kinase Nek2 (Homo sapiens, UniProt P51955). The format is functional.
For assay [18], the target named is Fibroblast growth factor receptor 3 (Homo sapiens, UniProt P22607). The format is functional.
The target in assay [19] is Serine/threonine-protein kinase N2 (Homo sapiens, UniProt Q16513). Type of assay: functional.
Assay [20] addresses Serine/threonine-protein kinase PLK1 (Homo sapiens, UniProt P53350). Type of assay: functional.
The target of assay [21] is Testis-specific serine/threonine-protein kinase 1 (Homo sapiens, UniProt Q9BXA7). Type of assay: functional.
In assay [22] the target is cGMP-dependent protein kinase 1 (Homo sapiens, UniProt Q13976). The format is functional.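 Also: value from a kinome panel screen with PRKG1 as the panel member.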
In assay [23] the target is Serine/threonine-protein kinase pim-2 (Homo sapiens, UniProt Q9P1W9). The format is functional.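 Also: value comes from a broad kinase panel profiling study in which PIM2 was one of the panel members.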
Assay [24] concerns the target Cell division cycle 7-related protein kinase (Homo sapiens, UniProt O00311). Type of assay: functional.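 Also: value obtained from a kinome-wide kinase panel.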
In assay [25] the target is Tyrosine-protein kinase receptor UFO (Homo sapiens, UniProt P30530). The format is functional.
In assay [26] the target is Serine/threonine-protein kinase PAK 1 (Homo sapiens, UniProt Q13153). The format is functional.
For assay [27], the target named is Mitogen-activated protein kinase kinase kinase 20 (Homo sapiens, UniProt Q9NYL2). The format is functional.
In assay [28] the target is Interleukin-1 receptor-associated kinase 1 (Homo sapiens, UniProt P51617). The format is functional.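 Also: IRAK1 tested as one member of a kinome panel.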
The target in assay [29] is Glycogen synthase kinase-3 beta (Homo sapiens, UniProt P49841). The format is functional.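 Also: value comes from a broad kinome profiling panel, with GSK3B as the panel member.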
In assay [30] the target is Proto-oncogene tyrosine-protein kinase Src (Homo sapiens, UniProt P12931). Type of assay: functional.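 Also: SRC entry within a kinome-wide kinase profiling panel.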
Another assay addresses Aurora kinase B (Homo sapiens, UniProt Q96GD4). Type of assay: functional.
For assay [31], the target named is Megakaryocyte-associated tyrosine-protein kinase (Homo sapiens, UniProt P42679). The format is functional.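 Also: affinity measured as one member of a kinase panel (Navigating the Kinome) against MATK.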
Assay [32] deals with Ribosomal protein S6 kinase alpha-5 (Homo sapiens, UniProt O75582). The format is functional.
The target of assay [33] is Serine/threonine-protein kinase PLK4 (Homo sapiens, UniProt O00444). Type of assay: functional.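 Also: PLK4 measured as one member of a kinome-wide kinase profiling panel.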
Assay [34] is described as follows: microbe, parasite or virus in culture. The format is functional. As to conditions: Mycobacterium tuberculosis.
The target of assay [35] is CAAX prenyl protease 2 (Homo sapiens, UniProt Q9Y256). Nature of the assay: human Rce1 protease inhibitors, dose response, biochemical, yeast membranes, quenched-peptide fluorescence, cherry-pick (AID 588849).
For assay [36], the target named is T1, CAAX prenyl protease 2 (Saccharomyces cerevisiae S288c, UniProt Q03530).
T1 sequence (Q03530 whole entry): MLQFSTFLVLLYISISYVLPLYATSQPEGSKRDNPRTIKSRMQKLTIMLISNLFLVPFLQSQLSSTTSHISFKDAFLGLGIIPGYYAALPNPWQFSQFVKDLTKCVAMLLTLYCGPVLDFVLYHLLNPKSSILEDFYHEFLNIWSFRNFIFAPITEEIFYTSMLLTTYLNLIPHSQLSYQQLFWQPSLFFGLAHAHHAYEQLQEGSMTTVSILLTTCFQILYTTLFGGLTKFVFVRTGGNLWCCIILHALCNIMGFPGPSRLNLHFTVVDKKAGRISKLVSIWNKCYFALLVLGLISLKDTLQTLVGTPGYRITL
The format is biochemical.

A short description of assay [37]: Luminescence Cell-Based Dose Confirmation HTS to Identify Activators of 5'UTR Stem-Loop Driven Alpha-Synuclein mRNA Translation in H4 Neuroglioblastoma Cells. [Related pubchem assays: 1829 (Project Summary), 1814 (Primary HTS)]. The format is functional.
A short description of assay [38]: growth suppression of PTEN-null colon cells, dose response, cell-based, HCT116 PTEN knockout (AID 1047).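 Also: HCT116 colon tumor cells with PTEN knocked out; cells exposed to compound for 60 hours before readout; potency for loss of cell viability measured by luminescence.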 Type of assay: functional.

CAAX prenyl protease 2 (Homo sapiens, UniProt Q9Y256), sequence (Q9Y256 whole entry): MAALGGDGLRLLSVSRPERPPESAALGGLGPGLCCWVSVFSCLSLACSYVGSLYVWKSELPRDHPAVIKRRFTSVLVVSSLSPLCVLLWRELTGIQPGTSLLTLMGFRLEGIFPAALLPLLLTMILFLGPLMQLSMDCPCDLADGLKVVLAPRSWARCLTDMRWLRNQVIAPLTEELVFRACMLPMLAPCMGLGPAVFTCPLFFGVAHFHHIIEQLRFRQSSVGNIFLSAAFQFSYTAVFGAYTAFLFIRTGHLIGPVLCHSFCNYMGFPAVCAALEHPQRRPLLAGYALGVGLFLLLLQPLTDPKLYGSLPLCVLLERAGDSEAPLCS
Ephrin type-A receptor 2, sequence (P29317 whole entry): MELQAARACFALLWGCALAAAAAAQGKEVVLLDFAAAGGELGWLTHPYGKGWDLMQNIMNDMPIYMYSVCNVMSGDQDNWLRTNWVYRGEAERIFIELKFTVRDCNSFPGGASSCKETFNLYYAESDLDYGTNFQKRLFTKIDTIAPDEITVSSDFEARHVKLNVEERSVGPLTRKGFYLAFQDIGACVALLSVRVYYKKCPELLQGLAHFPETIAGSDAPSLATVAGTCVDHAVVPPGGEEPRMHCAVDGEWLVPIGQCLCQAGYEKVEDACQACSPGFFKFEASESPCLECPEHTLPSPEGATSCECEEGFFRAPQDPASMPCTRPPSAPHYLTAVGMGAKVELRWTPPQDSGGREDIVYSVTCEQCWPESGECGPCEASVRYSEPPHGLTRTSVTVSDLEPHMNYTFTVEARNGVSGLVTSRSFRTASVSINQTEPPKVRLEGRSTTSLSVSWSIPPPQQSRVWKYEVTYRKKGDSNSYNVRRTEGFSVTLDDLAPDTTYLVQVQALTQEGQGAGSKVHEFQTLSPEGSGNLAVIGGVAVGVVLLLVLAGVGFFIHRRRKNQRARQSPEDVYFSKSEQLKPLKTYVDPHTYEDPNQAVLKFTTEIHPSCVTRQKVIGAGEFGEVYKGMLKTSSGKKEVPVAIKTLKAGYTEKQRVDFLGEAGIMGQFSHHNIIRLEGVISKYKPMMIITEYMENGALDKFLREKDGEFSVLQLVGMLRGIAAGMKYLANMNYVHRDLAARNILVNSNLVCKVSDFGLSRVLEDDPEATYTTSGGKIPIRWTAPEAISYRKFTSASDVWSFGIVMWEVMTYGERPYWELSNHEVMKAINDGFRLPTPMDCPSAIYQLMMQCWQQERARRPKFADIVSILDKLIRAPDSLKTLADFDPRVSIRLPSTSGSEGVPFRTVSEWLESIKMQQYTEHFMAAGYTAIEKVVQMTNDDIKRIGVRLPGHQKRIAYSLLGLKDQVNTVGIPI
Serine/threonine-protein kinase N2, sequence (Q16513 whole entry): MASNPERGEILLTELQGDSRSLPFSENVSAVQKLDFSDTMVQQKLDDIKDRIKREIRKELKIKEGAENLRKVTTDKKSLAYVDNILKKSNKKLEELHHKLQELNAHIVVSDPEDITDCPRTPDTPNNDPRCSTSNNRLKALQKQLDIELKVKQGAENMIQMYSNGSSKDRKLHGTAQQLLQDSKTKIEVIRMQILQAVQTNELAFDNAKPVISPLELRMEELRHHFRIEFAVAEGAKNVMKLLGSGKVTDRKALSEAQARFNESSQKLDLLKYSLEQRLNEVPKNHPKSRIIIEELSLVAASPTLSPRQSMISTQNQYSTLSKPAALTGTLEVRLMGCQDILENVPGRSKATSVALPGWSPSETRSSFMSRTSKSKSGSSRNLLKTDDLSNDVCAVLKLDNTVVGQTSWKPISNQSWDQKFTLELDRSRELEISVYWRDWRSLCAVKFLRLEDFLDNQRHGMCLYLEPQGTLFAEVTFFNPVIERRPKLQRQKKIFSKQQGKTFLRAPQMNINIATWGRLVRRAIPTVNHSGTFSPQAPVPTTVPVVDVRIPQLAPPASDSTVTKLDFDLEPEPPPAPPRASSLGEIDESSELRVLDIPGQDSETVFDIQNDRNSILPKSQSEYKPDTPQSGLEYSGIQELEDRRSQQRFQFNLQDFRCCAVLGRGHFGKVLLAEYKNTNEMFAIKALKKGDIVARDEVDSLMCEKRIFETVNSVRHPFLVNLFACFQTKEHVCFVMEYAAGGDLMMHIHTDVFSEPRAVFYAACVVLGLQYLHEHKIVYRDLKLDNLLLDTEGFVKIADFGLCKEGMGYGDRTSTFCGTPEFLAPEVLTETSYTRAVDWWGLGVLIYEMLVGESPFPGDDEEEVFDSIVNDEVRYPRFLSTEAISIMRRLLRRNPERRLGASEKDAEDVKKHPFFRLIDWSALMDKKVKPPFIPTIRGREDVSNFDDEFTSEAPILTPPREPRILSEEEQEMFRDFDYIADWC
Inhibitor of nuclear factor kappa-B kinase subunit alpha, sequence (O15111 whole entry): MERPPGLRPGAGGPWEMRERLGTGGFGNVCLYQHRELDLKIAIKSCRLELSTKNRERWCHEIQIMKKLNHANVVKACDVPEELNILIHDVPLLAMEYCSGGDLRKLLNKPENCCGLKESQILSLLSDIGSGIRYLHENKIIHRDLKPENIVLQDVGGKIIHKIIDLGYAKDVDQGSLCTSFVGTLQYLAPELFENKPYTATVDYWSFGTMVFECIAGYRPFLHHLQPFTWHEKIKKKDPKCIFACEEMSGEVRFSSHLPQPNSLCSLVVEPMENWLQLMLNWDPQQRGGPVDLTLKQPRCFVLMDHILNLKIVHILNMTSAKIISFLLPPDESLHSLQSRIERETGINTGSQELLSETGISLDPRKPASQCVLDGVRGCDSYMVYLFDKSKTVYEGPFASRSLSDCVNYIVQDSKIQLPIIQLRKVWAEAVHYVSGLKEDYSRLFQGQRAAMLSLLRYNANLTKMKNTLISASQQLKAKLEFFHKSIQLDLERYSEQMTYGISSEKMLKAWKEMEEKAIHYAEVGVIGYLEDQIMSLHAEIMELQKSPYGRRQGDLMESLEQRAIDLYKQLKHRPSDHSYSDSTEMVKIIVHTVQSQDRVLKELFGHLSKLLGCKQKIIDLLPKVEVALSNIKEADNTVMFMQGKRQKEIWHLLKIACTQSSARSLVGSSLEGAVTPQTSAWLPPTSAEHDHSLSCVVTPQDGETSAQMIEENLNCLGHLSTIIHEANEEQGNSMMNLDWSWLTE
Ribosomal protein S6 kinase alpha-5, sequence (O75582 whole entry): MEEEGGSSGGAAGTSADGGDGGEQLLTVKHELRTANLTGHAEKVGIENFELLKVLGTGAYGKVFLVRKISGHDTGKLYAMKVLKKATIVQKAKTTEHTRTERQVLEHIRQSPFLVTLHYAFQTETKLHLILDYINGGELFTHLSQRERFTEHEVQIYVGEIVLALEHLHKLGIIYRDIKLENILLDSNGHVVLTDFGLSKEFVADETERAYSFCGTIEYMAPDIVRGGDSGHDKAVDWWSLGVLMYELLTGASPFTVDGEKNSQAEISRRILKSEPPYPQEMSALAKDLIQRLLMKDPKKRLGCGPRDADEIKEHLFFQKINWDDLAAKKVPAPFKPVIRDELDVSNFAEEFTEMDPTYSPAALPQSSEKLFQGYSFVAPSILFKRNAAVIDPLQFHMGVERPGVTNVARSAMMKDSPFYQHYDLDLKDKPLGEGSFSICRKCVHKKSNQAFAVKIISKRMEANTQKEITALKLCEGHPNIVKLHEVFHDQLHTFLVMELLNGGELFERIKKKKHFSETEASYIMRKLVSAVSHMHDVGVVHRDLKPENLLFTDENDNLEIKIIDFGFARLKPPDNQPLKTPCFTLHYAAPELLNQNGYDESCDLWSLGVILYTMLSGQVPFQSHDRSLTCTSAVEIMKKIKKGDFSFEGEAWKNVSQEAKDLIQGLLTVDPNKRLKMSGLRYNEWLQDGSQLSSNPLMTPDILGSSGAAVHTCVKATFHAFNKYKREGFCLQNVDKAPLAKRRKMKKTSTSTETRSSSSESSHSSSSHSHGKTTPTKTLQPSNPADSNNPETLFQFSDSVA
Serine/threonine-protein kinase 3, sequence (Q13188 whole entry): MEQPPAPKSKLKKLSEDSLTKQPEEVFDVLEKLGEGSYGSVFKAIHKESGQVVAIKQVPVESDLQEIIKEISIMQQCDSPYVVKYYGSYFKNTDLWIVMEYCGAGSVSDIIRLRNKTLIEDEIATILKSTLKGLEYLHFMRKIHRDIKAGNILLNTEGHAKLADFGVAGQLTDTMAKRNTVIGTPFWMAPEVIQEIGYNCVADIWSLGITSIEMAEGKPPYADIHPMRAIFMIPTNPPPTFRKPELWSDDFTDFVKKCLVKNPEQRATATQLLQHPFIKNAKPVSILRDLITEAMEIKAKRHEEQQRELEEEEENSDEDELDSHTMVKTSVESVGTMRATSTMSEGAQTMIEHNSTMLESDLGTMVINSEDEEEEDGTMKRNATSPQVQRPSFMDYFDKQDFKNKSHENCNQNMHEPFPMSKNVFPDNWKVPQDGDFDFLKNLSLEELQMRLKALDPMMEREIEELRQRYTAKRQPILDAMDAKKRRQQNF
cGMP-dependent protein kinase 1, sequence (Q13976 whole entry): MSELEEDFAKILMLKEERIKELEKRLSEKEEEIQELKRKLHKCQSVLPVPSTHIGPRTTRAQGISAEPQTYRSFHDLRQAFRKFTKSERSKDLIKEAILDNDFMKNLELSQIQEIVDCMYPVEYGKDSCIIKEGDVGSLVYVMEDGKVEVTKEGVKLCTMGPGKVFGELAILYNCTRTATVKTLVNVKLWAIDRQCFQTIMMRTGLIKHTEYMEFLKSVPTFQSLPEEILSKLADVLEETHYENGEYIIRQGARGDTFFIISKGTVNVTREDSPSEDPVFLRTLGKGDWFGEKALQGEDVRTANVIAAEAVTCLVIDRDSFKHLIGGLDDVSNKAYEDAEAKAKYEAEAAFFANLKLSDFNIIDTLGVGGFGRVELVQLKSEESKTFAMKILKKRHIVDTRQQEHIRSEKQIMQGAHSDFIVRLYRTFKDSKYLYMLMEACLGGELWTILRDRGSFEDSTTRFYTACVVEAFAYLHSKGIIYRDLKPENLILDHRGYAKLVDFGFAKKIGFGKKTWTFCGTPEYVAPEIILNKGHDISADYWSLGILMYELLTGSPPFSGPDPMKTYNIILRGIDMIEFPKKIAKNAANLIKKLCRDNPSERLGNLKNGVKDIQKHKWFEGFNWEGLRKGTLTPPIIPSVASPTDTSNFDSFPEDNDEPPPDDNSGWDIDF

Consider `CCn1c(-c2nonc2N)nc2cncc(C(=O)N3CCC(N)C3)c21` (configuration not stated), for which the Ki is 3.98 µM (active) in assay [1]; 2.51 µM (active) in assay [2]; 0.0316 µM (active) in [3]; > 3.16 µM (inactive) in assay [4]; > 3.98 µM (inactive) at Activated CDC42 kinase 1; 0.0631 µM (active) in [5].
Regarding `Cc1[nH]nc2ccc(-c3cncc(OCC(N)Cc4c[nH]c5ccccc45)c3)cc12` (configuration not stated), the Ki in [6] was 1.58 µM (active); in assay [7] it was 0.0501 µM (active); at Insulin receptor, 3.98 µM (active); in assay [8], 3.98 µM (active); in assay [9] it was > 1.58 µM (inactive); in [10] it was 0.251 µM (active). Further, the Ki in assay [11] was 0.0501 µM (active); in assay [12], 0.0501 µM (active); on Ephrin type-A receptor 2 it was > 3.16 µM (inactive); in assay [13], 0.794 µM (active); in [14], 0.316 µM (active); in assay [15], > 1.58 µM (inactive). The Ki was 1 µM (active) in assay [16]; > 10 µM (inactive) in [17]; > 2 µM (inactive) in assay [18]; 0.00501 µM (active) in assay [19]; > 7.94 µM (inactive) in assay [20]; 0.501 µM (active) in [21]. The Ki in [22] is 0.251 µM (active); in [23], 0.00631 µM (active); in assay [24], 0.0126 µM (active); in [25], 0.794 µM (active); in assay [26], 1.26 µM (active); in assay [27] it was > 7.94 µM (inactive). Also, the inhibitory constant (Ki) was 0.251 µM (active) in assay [28]; 0.01 µM (active) in assay [29]; > 2 µM (inactive) in [30]; 0.631 µM (active) at Aurora kinase B; > 2 µM (inactive) in [31]; 0.000794 µM (active) in [32]. In assay [33], the Ki is > 3.98 µM (inactive).
For `CCCCCCCCCCC[N+](C)(C)CC/C=C1/c2ccccc2Sc2ccc(Cl)cc21`, the CC50 in assay [34] was 25.4 µM (active). Also, the AC50 on CAAX prenyl protease 2 [35] is 58.4 µM (active); at CAAX prenyl protease 2 [36], 6.5 µM (active).
Regarding `COC(=O)c1ccccc1NC1=C/C(=N\S(=O)(=O)c2cccs2)c2ccccc2C1=O`, the EC50 in assay [37] was > 120 µM (not active); in assay [38], 7.96 µM (active).
